# According to patent US20230017045A1, “PYRIDINE AND PYRIMIDINE CARBOXYLATE HERBICIDES AND METHODS OF USE THEREOF” (Dow AgroSciences LLC, priority 2017, published 2023):
# System: test plant species
# Assay: Post-emergent herbicidal activity test (greenhouse, foliar spray, visual growth reduction)
# Type: in vivo
# Conditions: post-emergence, 336 h, ALOMY: blackgrass (Alopecurus myosuroides), 140 g ai/ha, 14 days after application, read-out: Visual Growth Reduction (%) 14 Days After Application, ALOMY
# Method in brief: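 Visual scoring 14 d after treatment (0 = no injury, 100 = complete control) against nontreated and solvent-blank plants gave percent growth reduction. Foliar application used a track sprayer delivering 187 L/ha to seedlings at first or second true leaf stage, grown at 23–29 °C day, ~15 h photoperiod.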
row,SMILES,pest or weed control at 140 g/ha [%]
1,"COC(=O)c1nc(-c2ccc(C=O)cc2Cl)ccc1Cl [F22, methyl 3-chloro-6-(2-chloro-4-formylphenyl)picolinate]",0 to 29
2,COC(=O)c1nc(-c2ncc(Cl)c(C(F)F)c2Cl)ccc1Cl [F184],0 to 29
3,"COC(=O)c1nc(-c2cc(C(F)(F)F)ccc2Cl)ccc1Cl [F38, Methyl 3-chloro-6-(2-chloro-5-(trifluoromethyl)phenyl)picolinate]",0 to 29

# Same assay, conditions: post-emergence, 336 h, AMARE: redroot pigweed (Amaranthus retroflexus), 140 g ai/ha, 14 days after application, read-out: Visual Growth Reduction (%) 14 Days After Application, AMARE
row,SMILES,pest or weed control at 140 g/ha [%]
1,"COC(=O)c1nc(-c2ccc(C=O)cc2Cl)ccc1Cl [F22, methyl 3-chloro-6-(2-chloro-4-formylphenyl)picolinate]",0 to 29
2,COC(=O)c1nc(-c2ncc(Cl)c(C(F)F)c2Cl)ccc1Cl [F184],60 to 74
3,"COC(=O)c1nc(-c2cc(C(F)(F)F)ccc2Cl)ccc1Cl [F38, Methyl 3-chloro-6-(2-chloro-5-(trifluoromethyl)phenyl)picolinate]",0 to 29

# Same assay, conditions: post-emergence, 336 h, AVEFA: wild oat (Avena fatua), 140 g ai/ha, 14 days after application, read-out: Visual Growth Reduction (%) 14 Days After Application, AVEFA
row,SMILES,pest or weed control at 140 g/ha [%]
1,"COC(=O)c1nc(-c2ccc(C=O)cc2Cl)ccc1Cl [F22, methyl 3-chloro-6-(2-chloro-4-formylphenyl)picolinate]",0 to 29
2,COC(=O)c1nc(-c2ncc(Cl)c(C(F)F)c2Cl)ccc1Cl [F184],0 to 29
3,"COC(=O)c1nc(-c2cc(C(F)(F)F)ccc2Cl)ccc1Cl [F38, Methyl 3-chloro-6-(2-chloro-5-(trifluoromethyl)phenyl)picolinate]",0 to 29

# Same assay, conditions: post-emergence, 336 h, CHEAL: lambsquarters (Chenopodium album), 140 g ai/ha, 14 days after application, read-out: Visual Growth Reduction (%) 14 Days After Application, CHEAL
row,SMILES,pest or weed control at 140 g/ha [%]
1,"COC(=O)c1nc(-c2ccc(C=O)cc2Cl)ccc1Cl [F22, methyl 3-chloro-6-(2-chloro-4-formylphenyl)picolinate]",0 to 29
2,COC(=O)c1nc(-c2ncc(Cl)c(C(F)F)c2Cl)ccc1Cl [F184],60 to 74
3,"COC(=O)c1nc(-c2cc(C(F)(F)F)ccc2Cl)ccc1Cl [F38, Methyl 3-chloro-6-(2-chloro-5-(trifluoromethyl)phenyl)picolinate]",0 to 29

# Same assay, conditions: post-emergence, 336 h, CIRAR: canada thistle (Cirsium arvense), 140 g ai/ha, 14 days after application, read-out: Visual Growth Reduction (%) 14 Days After Application, CIRAR
row,SMILES,pest or weed control at 140 g/ha [%]
1,"COC(=O)c1nc(-c2ccc(C=O)cc2Cl)ccc1Cl [F22, methyl 3-chloro-6-(2-chloro-4-formylphenyl)picolinate]",0 to 29
2,COC(=O)c1nc(-c2ncc(Cl)c(C(F)F)c2Cl)ccc1Cl [F184],45 to 59
3,"COC(=O)c1nc(-c2cc(C(F)(F)F)ccc2Cl)ccc1Cl [F38, Methyl 3-chloro-6-(2-chloro-5-(trifluoromethyl)phenyl)picolinate]",0 to 29

# Same assay, conditions: post-emergence, 336 h, CYPES: yellow nutsedge (Cyperus esculentus), 140 g ai/ha, 14 days after application, read-out: Visual Growth Reduction (%) 14 Days After Application, CYPES
row,SMILES,pest or weed control at 140 g/ha [%]
1,"COC(=O)c1nc(-c2ccc(C=O)cc2Cl)ccc1Cl [F22, methyl 3-chloro-6-(2-chloro-4-formylphenyl)picolinate]",0 to 29
2,COC(=O)c1nc(-c2ncc(Cl)c(C(F)F)c2Cl)ccc1Cl [F184],0 to 29
3,"COC(=O)c1nc(-c2cc(C(F)(F)F)ccc2Cl)ccc1Cl [F38, Methyl 3-chloro-6-(2-chloro-5-(trifluoromethyl)phenyl)picolinate]",0 to 29

# Same assay, conditions: post-emergence, 336 h, DIGSA: crabgrass (Digitaria sanguinalis), 140 g ai/ha, 14 days after application, read-out: Visual Growth Reduction (%) 14 Days After Application, DIGSA
row,SMILES,pest or weed control at 140 g/ha [%]
1,"COC(=O)c1nc(-c2ccc(C=O)cc2Cl)ccc1Cl [F22, methyl 3-chloro-6-(2-chloro-4-formylphenyl)picolinate]",0 to 29
2,COC(=O)c1nc(-c2ncc(Cl)c(C(F)F)c2Cl)ccc1Cl [F184],60 to 74
3,"COC(=O)c1nc(-c2cc(C(F)(F)F)ccc2Cl)ccc1Cl [F38, Methyl 3-chloro-6-(2-chloro-5-(trifluoromethyl)phenyl)picolinate]",0 to 29

# Same assay, conditions: post-emergence, 336 h, ECHCG: barnyardgrass (Echinochloa crus-galli), 140 g ai/ha, 14 days after application, read-out: Visual Growth Reduction (%) 14 Days After Application, ECHCG
row,SMILES,pest or weed control at 140 g/ha [%]
1,"COC(=O)c1nc(-c2ccc(C=O)cc2Cl)ccc1Cl [F22, methyl 3-chloro-6-(2-chloro-4-formylphenyl)picolinate]",0 to 29
2,COC(=O)c1nc(-c2ncc(Cl)c(C(F)F)c2Cl)ccc1Cl [F184],85 to 94
3,"COC(=O)c1nc(-c2cc(C(F)(F)F)ccc2Cl)ccc1Cl [F38, Methyl 3-chloro-6-(2-chloro-5-(trifluoromethyl)phenyl)picolinate]",0 to 29

# Same assay, conditions: post-emergence, 336 h, IPOHE: ivy-leaf morning glory (Ipomoea hederacea), 140 g ai/ha, 14 days after application, read-out: Visual Growth Reduction (%) 14 Days After Application, IPOHE
row,SMILES,pest or weed control at 140 g/ha [%]
1,"COC(=O)c1nc(-c2ccc(C=O)cc2Cl)ccc1Cl [F22, methyl 3-chloro-6-(2-chloro-4-formylphenyl)picolinate]",0 to 29
2,COC(=O)c1nc(-c2ncc(Cl)c(C(F)F)c2Cl)ccc1Cl [F184],95 to 100
3,"COC(=O)c1nc(-c2cc(C(F)(F)F)ccc2Cl)ccc1Cl [F38, Methyl 3-chloro-6-(2-chloro-5-(trifluoromethyl)phenyl)picolinate]",0 to 29

# Same assay, conditions: post-emergence, 336 h, KCHSC: kochia (Bassia scoparia), 140 g ai/ha, 14 days after application, read-out: Visual Growth Reduction (%) 14 Days After Application, KCHSC
row,SMILES,pest or weed control at 140 g/ha [%]
1,"COC(=O)c1nc(-c2ccc(C=O)cc2Cl)ccc1Cl [F22, methyl 3-chloro-6-(2-chloro-4-formylphenyl)picolinate]",0 to 29
2,COC(=O)c1nc(-c2ncc(Cl)c(C(F)F)c2Cl)ccc1Cl [F184],0 to 29
3,"COC(=O)c1nc(-c2cc(C(F)(F)F)ccc2Cl)ccc1Cl [F38, Methyl 3-chloro-6-(2-chloro-5-(trifluoromethyl)phenyl)picolinate]",0 to 29

# Same assay, conditions: post-emergence, 336 h, ORYSA: rice (Oryza sativa), 140 g ai/ha, 14 days after application, read-out: Visual Growth Reduction (%) 14 Days After Application, ORYSA
row,SMILES,pest or weed control at 140 g/ha [%]
1,"COC(=O)c1nc(-c2ccc(C=O)cc2Cl)ccc1Cl [F22, methyl 3-chloro-6-(2-chloro-4-formylphenyl)picolinate]",0 to 29
2,COC(=O)c1nc(-c2ncc(Cl)c(C(F)F)c2Cl)ccc1Cl [F184],30 to 44
3,"COC(=O)c1nc(-c2cc(C(F)(F)F)ccc2Cl)ccc1Cl [F38, Methyl 3-chloro-6-(2-chloro-5-(trifluoromethyl)phenyl)picolinate]",0 to 29

# Same assay, conditions: post-emergence, 336 h, SETFA: giant foxtail (Setaria faberi), 140 g ai/ha, 14 days after application, read-out: Visual Growth Reduction (%) 14 Days After Application, SETFA
row,SMILES,pest or weed control at 140 g/ha [%]
1,"COC(=O)c1nc(-c2ccc(C=O)cc2Cl)ccc1Cl [F22, methyl 3-chloro-6-(2-chloro-4-formylphenyl)picolinate]",0 to 29
2,COC(=O)c1nc(-c2ncc(Cl)c(C(F)F)c2Cl)ccc1Cl [F184],85 to 94
3,"COC(=O)c1nc(-c2cc(C(F)(F)F)ccc2Cl)ccc1Cl [F38, Methyl 3-chloro-6-(2-chloro-5-(trifluoromethyl)phenyl)picolinate]",0 to 29

# Same assay, conditions: post-emergence, 336 h, SORVU: grain sorghum (Sorghum vulgare), 140 g ai/ha, 14 days after application, read-out: Visual Growth Reduction (%) 14 Days After Application, SORVU
row,SMILES,pest or weed control at 140 g/ha [%]
1,"COC(=O)c1nc(-c2ccc(C=O)cc2Cl)ccc1Cl [F22, methyl 3-chloro-6-(2-chloro-4-formylphenyl)picolinate]",0 to 29
2,COC(=O)c1nc(-c2ncc(Cl)c(C(F)F)c2Cl)ccc1Cl [F184],95 to 100
3,"COC(=O)c1nc(-c2cc(C(F)(F)F)ccc2Cl)ccc1Cl [F38, Methyl 3-chloro-6-(2-chloro-5-(trifluoromethyl)phenyl)picolinate]",0 to 29

# Same assay, conditions: post-emergence, 336 h, STEME: common chickweed (Stellaria media), 140 g ai/ha, 14 days after application, read-out: Visual Growth Reduction (%) 14 Days After Application, STEME
row,SMILES,pest or weed control at 140 g/ha [%]
1,"COC(=O)c1nc(-c2ccc(C=O)cc2Cl)ccc1Cl [F22, methyl 3-chloro-6-(2-chloro-4-formylphenyl)picolinate]",0 to 29
2,COC(=O)c1nc(-c2ncc(Cl)c(C(F)F)c2Cl)ccc1Cl [F184],0 to 29
3,"COC(=O)c1nc(-c2cc(C(F)(F)F)ccc2Cl)ccc1Cl [F38, Methyl 3-chloro-6-(2-chloro-5-(trifluoromethyl)phenyl)picolinate]",0 to 29

# Same assay, conditions: post-emergence, 336 h, TRZAS: wheat, spring (Triticum aestivum), 140 g ai/ha, 14 days after application, read-out: Visual Growth Reduction (%) 14 Days After Application, TRZAS
row,SMILES,pest or weed control at 140 g/ha [%]
1,"COC(=O)c1nc(-c2ccc(C=O)cc2Cl)ccc1Cl [F22, methyl 3-chloro-6-(2-chloro-4-formylphenyl)picolinate]",0 to 29
2,COC(=O)c1nc(-c2ncc(Cl)c(C(F)F)c2Cl)ccc1Cl [F184],30 to 44
3,"COC(=O)c1nc(-c2cc(C(F)(F)F)ccc2Cl)ccc1Cl [F38, Methyl 3-chloro-6-(2-chloro-5-(trifluoromethyl)phenyl)picolinate]",0 to 29
